How the values were obtained:
Type in all cases: biochemical
[1] = molecular target: T1, MMP-3 (Homo sapiens, UniProt P08254); assay: Automated MMP Profiling Assay, MMP-3 fluorogenic; conditions: for IC50: 96-well automated, P218
T1 construct: Truncated Prostromelysin-257 was expressed in a soluble form in E.coli; made in house; host or cells: E. coli
Source text: This assay with each invention compound was run with the three enzymes MMP-3, MMP-9 and MMP-2 in parallel as adapted for a 96-well microtitre plate using a Hamilton A® workstation.

[2] = molecular target: T2, MMP-2 (Homo sapiens, UniProt P08253); assay: Automated MMP Profiling Assay, MMP-2 fluorogenic; conditions: for IC50: 96-well automated, P218, read-out: MMP-2 Fluorogenic IC50 (profiling)
T2 sequence (P08253 110-660): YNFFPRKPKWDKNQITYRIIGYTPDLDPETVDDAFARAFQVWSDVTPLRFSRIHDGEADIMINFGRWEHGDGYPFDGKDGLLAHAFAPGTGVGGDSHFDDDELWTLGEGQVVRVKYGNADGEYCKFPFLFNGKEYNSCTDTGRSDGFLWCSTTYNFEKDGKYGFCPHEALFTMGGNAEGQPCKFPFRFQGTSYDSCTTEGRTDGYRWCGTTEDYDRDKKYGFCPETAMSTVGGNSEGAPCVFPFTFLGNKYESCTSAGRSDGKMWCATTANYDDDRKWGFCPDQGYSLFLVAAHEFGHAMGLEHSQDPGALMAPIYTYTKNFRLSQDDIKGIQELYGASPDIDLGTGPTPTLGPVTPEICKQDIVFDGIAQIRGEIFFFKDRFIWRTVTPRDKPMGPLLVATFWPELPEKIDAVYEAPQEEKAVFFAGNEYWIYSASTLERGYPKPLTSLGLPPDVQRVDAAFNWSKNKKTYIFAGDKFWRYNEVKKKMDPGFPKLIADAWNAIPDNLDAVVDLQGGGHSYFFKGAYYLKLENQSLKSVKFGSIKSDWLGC

[3] = molecular target: T3, MMP-9 (Homo sapiens, UniProt P14780); assay: Automated MMP Profiling Assay, MMP-9 fluorogenic; conditions: for IC50: 96-well automated, P218
T3 construct: from tissue; host or cells: human polymorphonuclear leukocytes (PMN) from whole blood (New York Blood Center), PMA-stimulated supernatant
T3 sequence (P14780 107-707 limits assumed): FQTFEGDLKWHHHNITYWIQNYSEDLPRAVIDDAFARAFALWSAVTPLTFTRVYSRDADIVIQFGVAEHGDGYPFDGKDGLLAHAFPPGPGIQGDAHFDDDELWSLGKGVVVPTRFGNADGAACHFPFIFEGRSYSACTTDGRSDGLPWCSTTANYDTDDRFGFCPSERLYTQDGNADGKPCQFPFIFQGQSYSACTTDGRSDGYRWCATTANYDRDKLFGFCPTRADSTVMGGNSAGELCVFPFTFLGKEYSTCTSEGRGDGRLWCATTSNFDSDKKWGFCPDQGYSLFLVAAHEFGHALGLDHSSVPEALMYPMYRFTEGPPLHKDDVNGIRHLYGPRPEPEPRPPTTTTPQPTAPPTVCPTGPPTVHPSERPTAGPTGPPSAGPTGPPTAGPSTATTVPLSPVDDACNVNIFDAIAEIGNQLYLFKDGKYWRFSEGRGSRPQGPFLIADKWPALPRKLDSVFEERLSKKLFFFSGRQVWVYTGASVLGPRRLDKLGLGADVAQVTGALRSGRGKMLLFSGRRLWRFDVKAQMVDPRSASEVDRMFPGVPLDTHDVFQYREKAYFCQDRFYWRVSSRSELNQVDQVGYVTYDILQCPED

T1 sequence (P08254 100-274 limits assumed): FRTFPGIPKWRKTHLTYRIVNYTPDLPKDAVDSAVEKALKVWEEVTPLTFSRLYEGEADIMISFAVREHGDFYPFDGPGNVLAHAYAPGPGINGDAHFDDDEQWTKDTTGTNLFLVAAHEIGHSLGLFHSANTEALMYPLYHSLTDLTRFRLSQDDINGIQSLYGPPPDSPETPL

| Structure (SMILES) | inhibition at 5 µM [1] [%] | IC50 [2] [nM] | inhibition at 5 µM [3] [%] | IC50 [1] [nM] | IC50 [3] [nM] | inhibition at 5 µM [2] [%] |
| --- | --- | --- | --- | --- | --- | --- |
| CC(=O)NC(CC(=O)c1ccc(-c2ccc(Cl)cc2)cc1)C(=O)O (stereo not drawn) [Example 430, [1,1'-Biphenyl]-4-butanoic acid, α-(acetylamino)-4'-chloro-γ-oxo-] | 28 | 419 | 37 | – | – | – |
| O=C(CC(CCN1C(=O)c2cccc3c(Br)ccc(c23)C1=O)C(=O)O)c1ccc(-c2ccc(Cl)cc2)cc1 (stereo not drawn) [Example 418] | – | 420 | – | 305 | 89 | – |
| O=C(O)C1=CCCC1C(=O)c1ccc(-c2ccc(Cl)cc2)cc1 (stereo not drawn) [Example 439, 1-Cyclopentene-1-carboxylic acid, 5-[(4'-chloro[1,1'-biphenyl]-4-yl)carbonyl]-] | 0 | – | 3 | – | – | 24 |
| O=C(O)[C@H]1[C@@H](Sc2ccccc2)CC[C@@H]1C(=O)c1ccc(-c2ccc(Cl)cc2)cc1 (relative stereo) [Example 313, Cyclopentanecarboxylic acid, 2-[(4'-chloro[1,1'-biphenyl]-4-yl)carbonyl]-5-(phenylthio)-, (1α,2β,5α)-] | – | 2780 | 20 | 3330 | – | – |
| CC(C)CCOc1ccc(-c2ccc(C(=O)CC(CCCc3ccccc3)C(=O)O)cc2)cc1 (stereo not drawn) [Example 96, [1,1'-Biphenyl]-4-butanoic acid, 4'-(3-methylbutoxy)-γ-oxo-α-(3-phenylpropyl)-] | – | 72 | – | 232 | > 1250 | – |
| CCCCCOc1ccc(-c2ccc(C(=O)C3CCC=C3C(=O)O)cc2)cc1 (stereo not drawn) [Example 442, 1-Cyclopentene-1-carboxylic acid, 5-[[4'-(pentyloxy)[1,1'-biphenyl]-4-yl]carbonyl]-] | – | 962 | 40 | 2760 | – | – |
| O=C(CC(CCN1C(=O)c2ccccc2C1=O)C(=O)O)c1ccc(-c2ccc(OCc3ccccc3)cc2)cc1 (stereo not drawn) [Example 271, 2H-Isoindole-2-butanoic acid, 1,3-dihydro-1,3-dioxo-α-[2-oxo-2-[4'-(phenylmethoxy)[1,1'-biphenyl]-4-yl]ethyl]-] | – | 1.4 | – | 5.2 | 7.9 | – |
| O=C(c1ccc(-c2ccc(Cl)cc2)cc1)C1CCC(Sc2ccccc2)C1C(=O)O (stereo not drawn) [Example 312, Cyclopentanecarboxylic acid, 2-[(4'-chloro[1,1'-biphenyl]-4-yl)carbonyl]-5-(phenylthio)-, (1α,2β,5α)-] | – | 60 | – | 80 | 871 | – |
| CC(=O)O[C@H]1C[C@H](C(=O)c2ccc(-c3ccc(Cl)cc3)cc2)[C@H]1C(=O)O (relative stereo) [Example 395, Cyclobutanecarboxylic acid, 2-(acetyloxy)-4-[(4'-chloro[1,1'-biphenyl]-4-yl)carbonyl]-, (1α,2α,4β)-] | – | 560 | 44 | 2200 | – | – |
| CCCCCOc1ccc(-c2ccc(C(=O)CC(CCc3cccc(I)c3)C(=O)O)cc2)cc1 (stereo not drawn) [Example 162, [1,1'-Biphenyl]-4-butanoic acid, α-[2-(3-iodophenyl)ethyl]-γ-oxo-4'-(pentyloxy)-] | – | 22 | 8 | 181 | – | – |
| O=C(O)c1ccc(COc2ccc(-c3ccc(C(=O)CC(CCCc4ccccc4)C(=O)O)cc3)cc2)cc1 (stereo not drawn) [Example 113] | – | 44 | – | 28 | 1330 | – |
| O=C(O)[C@H]1[C@H](COc2ccccc2)CC[C@@H]1C(=O)c1ccc(-c2ccc(Cl)cc2)cc1 (relative stereo) [Example 366, Cyclopentanecarboxylic acid, 2-[(4'-chloro[1,1'-biphenyl]-4-yl)carbonyl]-5-(phenoxymethyl)-, (1α,2β,5β)-] | – | 6.7 | – | 22 | 56 | – |
| O=C(CC(CCN1C(=O)CCC1=O)C(=O)O)c1ccc(-c2ccc(Cl)cc2)cc1 (stereo not drawn) [Example 411, 1-Pyrrolidinebutanoic acid, α-[2-(4'-chloro[1,1'-biphenyl]-4-yl)-2-oxoethyl]-2,5-dioxo-] | – | 27 | – | 116 | 213 | – |
| CC(C)(C)CC(=O)Nc1ccc(-c2ccc(C(=O)CC(CCc3ccccc3)C(=O)O)cc2)cc1 (stereo not drawn) [Example 141, [1,1'-Biphenyl]-4-butanoic acid, 4'-[(3,3-dimethyl-1-oxobutyl)amino]-γ-oxo-α-(2-phenylethyl)-] | – | 1170 | 0 | < 5000 | – | – |
| O=C(CC(CCCc1ccccc1)C(=O)O)c1ccc(-c2ccc(OCCc3ccccc3)cc2)cc1 (stereo not drawn) [Example 102, [1,1'-Biphenyl]-4-butanoic acid, γ-oxo-4'-(2-phenylethoxy)-α-(3-phenylpropyl)-] | – | 25 | – | 78 | 698 | – |
| COC(=O)c1cccc(SCC(CC(=O)c2ccc(-c3ccc(Cl)cc3)cc2)C(=O)O)c1 (stereo not drawn) [Example 432, [1,1'-Biphenyl]-4-butanoic acid, 4'-chloro-α-[[[3-(methoxycarbonyl)phenyl]thio]methyl]-γ-oxo-] | – | 236 | – | 1600 | > 1250 | – |
| CCCCCCOc1ccc(-c2ccc(C(=O)C3CCC=C3C(=O)O)cc2)cc1 (stereo not drawn) [Example 443, 1-Cyclopentene-1-carboxylic acid, 5-[[4'-(hexyloxy)[1,1'-biphenyl]-4-yl]carbonyl]-] | 20 | 4610 | 16 | – | – | – |
| O=C(Nc1ccc(-c2ccc(C(=O)CC(CCc3ccccc3)C(=O)O)cc2)cc1)OCc1ccccc1 (stereo not drawn) [Example 137, [1,1'-Biphenyl]-4-butanoic acid, γ-oxo-α-(2-phenylethyl)-4'-[[(phenylmethoxy)carbonyl]amino]-] | – | 548 | – | > 1250 | 1400 | – |
| CCN(CC)C(=O)c1cccc(CCC(CC(=O)c2ccc(-c3ccc(OCc4ccccc4)cc3)cc2)C(=O)O)c1 (stereo not drawn) [Example 165, [1,1'-Biphenyl]-4-butanoic acid, α-[2-[3-[(diethylamino)carbonyl]phenyl]ethyl]-γ-oxo-4'-(phenylmethoxy)-] | – | 3 | – | 13 | 55 | – |
| O=C(CC(CCCc1ccccc1)C(=O)O)c1ccc(-c2ccc(/C=C\c3ccccc3)cc2)cc1 (stereo not drawn) [Example 358, [1,1'-Biphenyl]-4-butanoic acid, 4'-γ-oxo-4'-(2-phenylethenyl)-α-(3-phenylpropyl)-, (Z)-] | 39 | 124 | 4 | – | – | – |
| CC(=O)O[C@@H]1C[C@H](C(=O)c2ccc(-c3ccc(Cl)cc3)cc2)[C@H]1C(=O)O (relative stereo) [Example 396, Cyclobutanecarboxylic acid, 2-(acetyloxy)-4-[(4'-chloro[1,1'-biphenyl]-4-yl)carbonyl]-, (1α,2β,4β)-] | – | 362 | – | 779 | 2290 | – |
| O=C(CC(CCCc1ccccc1)C(=O)O)c1ccc(-c2ccc(OCC3CCCCC3)cc2)cc1 (stereo not drawn) [Example 93, [1,1'-Biphenyl]-4-butanoic acid, 4'-(cyclohexylmethoxy)-γ-oxo-α-(3-phenylpropyl)-] | – | 36 | – | 129 | > 1250 | – |
| O=C(O)[C@H]1[C@H](CN2C(=O)c3cc4ccccc4cc3C2=O)CC[C@@H]1C(=O)c1ccc(-c2ccc(Cl)cc2)cc1 (relative stereo) [Example 387, Cyclopentanecarboxylic acid, 2-[(4'-chloro[1,1'-biphenyl]-4-yl)carbonyl]-5-[(1,3-dihydro-1,3-dioxo-2H-benz[.function.]isoindol-2-yl)methyl]-, (1α,2β,5β)-] | – | 4.9 | – | 9.4 | 2 | – |
| O=C(CC(CCCc1ccccc1)C(=O)O)c1ccc(-c2ccc(OCc3ccccn3)cc2)cc1 (stereo not drawn) [Example 110, [1,1'-Biphenyl]-4-butanoic acid, γ-oxo-α-(3-phenylpropyl)-4'-(2-pyridinylmethoxy)-] | – | 38 | 26 | 37 | – | – |
| CCCCCCCCCCOc1ccc(-c2ccc(C(=O)CC(CCCc3ccccc3)C(=O)O)cc2)cc1 (stereo not drawn) [Example 108, [1,1'-Biphenyl]-4-butanoic acid, 4'-(decyloxy)γ-oxo-α-(3-phenylpropyl)-] | 8 | – | 4 | – | – | 16 |
| Cc1ccccc1C(=O)OC[C@@H]1CC[C@H](C(=O)c2ccc(-c3ccc(Cl)cc3)cc2)[C@H]1C(=O)O (relative stereo) [Example 378, Benzoic acid, 2-methyl-, [2-carboxy-3-[(4'-chloro[1,1'-biphenyl]-4-yl)carbonyl]cyclopentyl]methyl ester, (1α,2β,3α)-] | – | 43 | – | 77 | 83 | – |
| O=C(c1ccc(-c2ccc(Cl)cc2)cc1)[C@@H]1CCN(C(=O)OCc2ccccc2)[C@H]1C(=O)O [Example 167, 1,2-Pyrrolidinedicarboxylic acid, 3-[(4'-chloro[1,1'-biphenyl]-4-yl)carbonyl],1-(phneylmethyl) ester, (2R-trans)-] | 18 | – | 23 | – | – | 31 |
